In this experiment the target is T1, hS1P1 receptor (Homo sapiens, UniProt P21453).
T1 construct: host or cells: U2OS
The experiment can be described thus: hS1P1 receptor internalization assay (cell imaging-based, hS1P1-eGFP U2OS cells). The settings on record: U2OS cell line expressing hS1P1-eGFP, compounds incubated at 37° C. for one hour; for Emax: 1 h, efficacy (Max), read-out: hS1P1 Receptor Internalization (biolimaging) Max (%); for EC50: GFP-containing endosomes per cell (ArrayScan), read-out: hS1P1 Receptor Internalization (bioimaging) EC50 IP. The procedure:
The activity of compounds of the invention was determined by a cell imaging-based assay measuring the degree of hS1P1 receptor internalization and a Ca^2+ mobilization assay measuring the level of S1P receptor activation. The receptor internalization assay was employed to determine the potency and efficacy of compounds on hS1P1 receptor, while Ca^2+ mobilization assay was used to determine selectivity among different S1P receptors and activity on S1P receptors from species such as rat, dog, and cyno. The hS1P1 receptor internalization assay was performed using a U2OS cell line expressing hS1P1-eGFP chimeric protein (Thermo Scientific, Soeborg, Denmark). Upon compound treatment, the hS1P1 receptor was internalized in cytoplasma and formed GFP-containing-endosomes. This event was detected by an automated microscope, ArrayScan (Thermo Scientific Cellomics, Pittsburg), and the degree of receptor internalization is quantitated by counting green fluorescent GFP-containing endosomes per cell. In this assay, hS1P1-eGFP expressing U2OS cells were starved in serum free media for two hours prior to compound treatment. Then compounds were incubated with the starved cells at 37° C. for one hour. Subsequently, compound-treated cells were fixed using 4% formaldehyde, and the nuclei were stained using Hoechst. Then the cells were imaged in ArrayScan. The potency and efficacy of the compounds were determined by plotting the number of green fluorescent GFP-containing endosomes per cell against corresponding compound concentration.

The text below walks through data of patent publication US7842685B2, “S1P1 receptor agonists and use thereof” (Amgen Inc., priority 2008, dated 2010).

Counter-ions that a name gives are not always drawn.

T1 sequence (P21453 whole entry): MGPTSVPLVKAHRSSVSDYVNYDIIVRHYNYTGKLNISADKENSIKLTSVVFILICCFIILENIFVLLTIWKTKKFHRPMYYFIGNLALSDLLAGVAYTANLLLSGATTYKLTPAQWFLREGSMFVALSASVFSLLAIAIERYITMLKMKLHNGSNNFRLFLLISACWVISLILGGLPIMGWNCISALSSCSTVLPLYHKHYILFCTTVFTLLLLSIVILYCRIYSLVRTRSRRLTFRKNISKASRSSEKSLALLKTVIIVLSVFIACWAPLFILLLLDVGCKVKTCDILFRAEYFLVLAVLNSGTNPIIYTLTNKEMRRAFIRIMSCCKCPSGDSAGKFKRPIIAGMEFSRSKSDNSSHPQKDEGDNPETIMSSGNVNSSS

For the molecule `O=C(O)CCNC(=O)c1ccc(-c2nc3ccc(C4(c5ccccc5)CC4)nc3s2)c(F)c1` [Example 14, 3-(3-fluoro-4-(5-(1-phenylcyclopropyl)thiazolo[5,4-b]pyridine-2-yl)-benzamido)propanoic acid], the Emax was 66% and the EC50 was 20.6 nM.
For `c1ccc(C2(c3ccc4nc(-c5ccc6c(c5)CCNC6)sc4n3)CC2)cc1` [Example 80, 5-(1-phenylcyclopropyl)-2-(1,2,3,4-tetrahydroisoquinolin-6-yl)thiazolo-[5,4-b]pyridine] the same measures were 148% and 563 nM.
On to `Cc1cc(CN2CC(C(=O)O)C2)ccc1-c1nc2ccc(C3(c4ccccc4)CC3)nc2s1` [Example 19, 1-((3-methyl-4-(5-(1-phenylcyclopropyl)thiazolo[5,4-b]pyridine-2-yl)phenyl)methyl)azetidine-3-carboxylic acid], for which the Emax came out at 121% and the EC50 was 1.4 nM.
Taken in the same sequence, the figures for `O=C(O)CCNCc1ccc(-c2nc3ccc(C4(c5ccccc5)CC4)nc3s2)c(F)c1` [Example 12, 3-((3-fluoro-4-(5-(1-phenylcyclopropyl)thiazolo[5,4-b]pyridine-2-yl)-phenyl)methylamino)propanoic acid hydrochloride] were 101% and 2 nM.
Taken in the same sequence, the figures for `O=C(O)[C@H]1C[C@@H](Nc2ccc(-c3nc4ccc(C5(c6ccccc6)CC5)nc4s3)c(F)c2)C1` [Example 130, cis-3-((3-fluoro-4-(5-(1-phenylcyclopropyl)[1,3]thiazolo[5,4-b]pyridin-2-yl)phenyl)amino)cyclobutanecarboxylic acid] were 89% and 11.6 nM.
For `O=C(O)C1(F)CN(Cc2ccc(-c3nc4ccc(C5(c6ccccc6)CC5)nc4s3)c(F)c2)C1` [Example 4, 3-fluoro-1-((3-fluoro-4-(5-(1-phenylcyclopropyl)thiazolo[5,4-b]pyridine-2-yl)phenyl)methyl)azetidine-3-carboxylic acid hydrochloride] the same measures were 121% and 1.2 nM.
Take `O=C(O)[C@@H]1C[C@H](c2ccc(-c3nc4ccc(C5(c6ccccc6)CC5)nc4s3)c(F)c2)CN1` [Example 54, (2S,4R)-4-(3-fluoro-4-(5-(1-phenylcyclopropyl)thiazolo[5,4-b]pyridine-2-yl)phenyl)pyrrolidine-2-carboxylic acid trifluoroacetic acid salt]: the Emax stood at 126% and the EC50 is 4.5 nM.
On to `Cc1cc(-c2nc3ccc(C4(c5ccccc5)CC4)nc3s2)cc(C)c1CN1CC(C(=O)O)C1` [Example 17, 1-((2,6-dimethyl-4-(5-(1-phenylcyclopropyl)thiazolo[5,4-b]-pyridin-2-yl)phenyl)methyl)azetidine-3-carboxylic acid], for which the Emax is 148% and the EC50 worked out at 21 nM.
Taken in the same sequence, the figures for `c1ccc(C2(c3ccc4nc(-c5ccc6[nH]ccc6c5)sc4n3)CC2)cc1` [Example 136, 2-(1H-indol-5-yl)-5-(1-phenylcyclopropyl)thiazolo[5,4-b]pyridine] were 101% and 191 nM.
For `O=C(O)CCc1ccc(-c2nc3ccc(C4(c5ccccc5)CC4)nc3s2)c(F)c1` [Example 27, 3-(3-fluoro-4-(5-(1-phenylcyclopropyl)thiazolo[5,4-b]pyridine-2-yl)-phenyl)propanoic acid] the same measures were 81% and 5880 nM.
For `O=C(O)C(=O)NCCc1ccc(-c2nc3ccc(C4(c5ccccc5)CC4)nc3s2)c(F)c1` [Example 57, ((2-(3-fluoro-4-(5-(1-phenylcyclopropyl)[1,3]thiazolo[5,4-b]pyridin-2-yl)phenyl)ethyl)amino)(oxo)acetic acid] the same measures were 107% and 35.5 nM.
In the case of `OCC(CO)Cc1ccc(-c2nc3ccc(C4(c5ccccc5)CC4)nc3s2)c(F)c1` [Example 29, 2-(3-fluoro-4-(5-(1-phenylcyclopropyl)thiazolo[5,4-b]pyridine-2-yl)benzyl)propane-1,3-diol], the Emax is 91% and the EC50 turned out to be 334 nM.
Taken in the same sequence, the figures for `Fc1cc(CCNCc2ccccc2)ccc1-c1nc2ccc(C3(c4ccccc4)CC3)nc2s1` [Example 60, N-benzyl-2-(3-fluoro-4-(5-(1-phenylcyclopropyl)[1,3]thiazolo[5,4-b]pyridin-2-yl)phenyl)ethanamine] were 162% and 721 nM.
For `N[C@H](CC(=O)O)C(=O)Nc1ccc(-c2nc3ccc(C4(c5ccccc5)CC4)nc3s2)c(F)c1` [Example 126, N-(3-fluoro-4-(5-(1-phenylcyclopropyl)[1,3]thiazolo[5,4-b]pyridin-2-yl)phenyl)-D-alpha-asparagine TFA salt] the same measures were 100% and 0.6 nM.
Taken in the same sequence, the figures for `NC1(c2ccc(-c3nc4ccc(C5(c6ccccc6)CC5)nc4s3)c(F)c2)CC1` [Example 20, 1-(3-fluoro-4-(5-(1-phenylcyclopropyl)thiazolo[5,4-b]pyridine-2-yl)phenyl)cyclopropanamine] were 160% and 31.2 nM.
`O=C(O)C1CN(Cc2ccc(-c3nc4ccc(C5(c6ccccc6)CC5)nc4s3)c(F)c2)C1` [Example 1, 1-((3-fluoro-4-(5-(1-phenylcyclopropyl)thiazolo[5,4-b]pyridin-2-yl)-phenyl)methyl)azetidine-3-carboxylic acid]: the Emax came to 98% and the EC50 is 2.5 nM.
Taken in the same sequence, the figures for `CC(=O)NCCc1ccc(-c2nc3ccc(C4(c5ccccc5)CC4)nc3s2)c(F)c1` [Example 150, N-(2-(3-fluoro-4-(5-(1-phenylcyclopropyl)[1,3]thiazolo[5,4-b]pyridin-2-yl)phenyl)ethyl)acetamide] were 155% and 184 nM.
Taken in the same sequence, the figures for `O=C(O)[C@@H]1C[C@@H](Oc2ccc(-c3nc4ccc(C5(c6ccccc6)CC5)nc4s3)cc2)CN1` [Example 72, (2S,4R)-4-(4-(5-(1-phenylcyclopropyl)thiazolo[5,4-b]pyridin-2-yl)phenoxy)pyrrolidine-2-carboxylic acid] were 133% and 45.1 nM.
For `O=C(O)C1CN(Cc2ccc(-c3nc4ccc(C5(c6ccccc6)CCCCC5)nc4s3)c(F)c2)C1` [Example 7, 1-((3-fluoro-4-(5-(1-phenylcyclohexyl)thiazolo[5,4-b]pyridine-2-yl)-phenyl)methyl)azetidine-3-carboxylic acid] the same measures were 108% and 32.6 nM.
`O=C(O)C1CN(Cc2ccc(-c3nc4ccc(C5(c6ccccc6F)CC5)nc4s3)c(F)c2)C1` [Example 38, 1-(3-fluoro-4-(5-(1-(2-fluorophenyl)cyclopropyl)thiazolo[5,4-b]pyridine-2-yl)-benzyl)azetidine-3-carboxylic acid]: the Emax worked out at 111% and the EC50 was 3.7 nM.
Taken in the same sequence, the figures for `O=C(O)C1CN(Cc2ccc(-c3nc4ccc(C5(c6ccccc6)CC=CC5)nc4s3)c(F)c2)C1` [Example 5, 1-((3-fluoro-4-(5-(1-phenylcyclopent-3-enyl)thiazolo[5,4-b]pyridine-2-yl)phenyl)methyl)azetidine-3-carboxylic acid] were 90% and 130 nM.
